Holding throughout (format): in vivo
Assay [1] has as its system eyes. The assay is described as follows: Topical ocular composition (Example 212), allergic symptoms.
Assay [2] relates to eyes. Briefly: Topical ocular composition (Example 212), dry eye syndrome. As to conditions: composition of Example 212 (0.50 wt %), as a drop twice per day.
Assay [3] deals with eyes. Briefly: Topical ocular composition (Example 212), hyperemia, redness and ocular irritation. To be noted: composition of Example 212 (0.50 wt %), as a drop as needed.
In assay [4] the test system is patient suffering from glaucoma. The assay is described as follows: Topical ocular composition (Example 212) lowering intraocular pressure. On the procedure: Examples of such assays are described in the following reference, incorporated herein by reference: C. Liljebris, G. Selen, B. Resul, J. Sternschantz, and U. Hacksell, “Derivatives of 17-Phenyl-18,19,20-trinorprostaglandin F2α Isopropyl Ester: Potential Anti-glaucoma Agents”, Journal of Medicinal Chemistry, Vol. 38 (2) 1995, pp. 289-304.
(§1) Topical pharmaceutical compositions for lowering intraocular pressure are prepared by conventional methods and formulated as follows: […]
(§2) A compound according to this invention is used as the 6-aminoisoquinoline derivative. […]

Assay [5] has as its system eyes. Briefly: Topical ocular composition (Example 212), neuroprotective agent. To be noted: composition of Example 212 (0.50 wt %), as a drop 4 times per day. The procedure:
as §1, §2

[6] abbreviates: composition of Example 212 (0.50 wt %), as a drop twice per day.
Where [7] appears, read: composition of Example 212/213 (0.50 wt %), as a drop twice a day or as needed.

Structures can show the parent of a compound that is named as a salt.

Take `O=C(CCl)Nc1ccc2cnccc2c1` [Example E1, 2-chloro-N-(isoquinolin-6-yl) acetamide]: the “decrease of allergic symptoms” value with eyes [1] (setting [6]) is “substantially decreases allergic symptoms”. Further, in the assay with eyes [2], the “relief of dry eye syndrome” value is on record as “relieves dry eye syndrome”.
`NCC(=O)Nc1ccc2cnccc2c1` [Example E40, 2-amino-N-isoquinoline-6-yl-acetamide dihydrochloride]: in the assay with eyes [3], the “decrease of hyperemia, redness and ocular irritation” value was “substantially decreases hyperemia, redness and ocular irritation”.
As to `O=C(CNCc1ccccc1)Nc1ccc2cnccc2c1` [Example E58, 2-(benzylamino)-N-(isoquinolin-6-yl)acetamide], the “decrease of intraocular pressure” value in assay [4] (setting [6]) was “substantially decreases intraocular pressure”.
In the case of `O=C(Nc1ccc2cnccc2c1)OCc1ccccc1` [Example E87, benzylisoquinolin-6-ylcarbamate], in the assay with eyes [1] (setting [6]), the “decrease of allergic symptoms” value is “substantially decreases allergic symptoms”. Also, the “relief of dry eye syndrome” value in the assay on eyes [2] is “relieves dry eye syndrome”.
In the case of `O=C(NCc1ccccc1)Nc1ccc2cnccc2c1` [Example E88, 1-benzyl-3-(isoquinolin-6-yl)urea], in the assay with eyes [1] (composition of Example 212/213 (0.50 wt %), as a drop as needed), the “decrease of allergic symptoms” value is on record as “substantially decreases allergic symptoms”.
With `O=C(CN1CCOCC1)Nc1ccc2cnccc2c1` [Example E105, N-(isoquinolin-6-yl)-2-morpholinoacetamide], in the assay on eyes [3], the “decrease of hyperemia, redness and ocular irritation” value is “substantially decreases hyperemia, redness and ocular irritation”.
As to `O=C(Nc1ccncc1)c1ccc(C2CC2C(=O)Nc2ccc3cnccc3c2)cc1` (stereo not shown) [Example E118, 4-(2-(isoquinolin-6-ylcarbamoyl)cyclopropyl)-N-(pyridin-4-yl)benzamide], the “decrease of intraocular pressure” value in assay [4] (setting [7]) is given as “substantially decreases intraocular pressure”.
Regarding `CNC(=O)c1cccc(NCC(=O)Nc2ccc3cnccc3c2Cl)c1` [Example E119b, 3-(2-(5-chloroisoquinolin-6-ylamino)-2-oxoethylamino)-N-methyl benzamide], in assay [4] (setting [7]), the “decrease of intraocular pressure” value is recorded as “substantially decreases intraocular pressure”.
As for `CNC(=O)c1cccc(NCS(=O)(=O)Nc2ccc3cnccc3c2)c1` [Example E136, 3-((N-isoquinolin-6-ylsulfamoyl)methylamino)-N-methylbenzamide], the “decrease of intraocular pressure” value in assay [4] (setting [6]) is “substantially decreases intraocular pressure”.
For the compound `N[C@@H](CSCC(C(=O)c1ccc(/C=C/C(=O)Nc2ccc3cnccc3c2)cc1)c1ccccc1)C(=O)O` (stereo partly drawn) [Example E207, (2R)-2-amino-3-(3-(4-((E)-3-(isoquinolin-6-ylamino)-3-oxoprop-1-enyl)phenyl)-3-oxo-2-phenylpropylthio)propanoic acid], the “decrease of intraocular pressure” value in assay [4] (composition of Example 212 (0.50 wt %), as a drop 4 times per day) was “substantially decreases intraocular pressure”. The neuroprotective agent entry with eyes [5] is listed as “serves as a neuroprotective agent”.

The values above are taken from patent US8455647B2, “6-aminoisoquinoline compounds” (Aerie Pharmaceuticals, Inc., priority 2005, dated 2013).
